The record followed here is PMC4050313, “Panaxadiol and Panaxatriol Derivatives as Anti-Hepatitis B Virus Inhibitors” (Natural Products and Bioprospecting, 2014).

Some results are limits rather than exact numbers.

For data set [1], the system named is HepG 2.2.15 cells. The experiment in a line: Cytotoxicity, modified MTT method. Type of data set: cell-based. To be noted: 50 % cytotoxicity concentration in HepG 2.2.15 cells; means of two independent experiments. Here is the method: (§1) Based on our previous description, inhibitory activity on HBV (HBsAg, HBeAg and HBV DNA) was evaluated. […] Cytotoxicity was assayed with a modified 3-(4,5-dimethylthiazole-2-yl)-2,5-diphenyltetrazolium bromide (MTT) method (Gibco Invitrogen, Carlsbad, CA, USA). The anti-HBV antigen secretion activities were determined by the enzyme linked immunosorbent assay (ELISA; Autobio Diagnostics Co., Ltd, China). A real-time PCR assay was applied to detect the inhibitory activity on HBV DNA replication.
A general note: Tetrazolium assays rely on reduction of a dye to a coloured formazan, in cell work by metabolically active cells.

Data set [2] has as its system HBeAg secretion. In words: microbe, parasite or virus in culture. Type of data set: cell-based, Hepatitis B virus. To be noted: HepG 2.2.15 cells; means of two independent experiments; read-out: HBeAg IC50. Here is the method:
as §1

Data set [3] has as its system HBsAg secretion. The experiment in a line: microbe, parasite or virus in culture. To be noted: for IC50: HepG 2.2.15 cells, means of two independent experiments, read-out: HBsAg IC50; for growth of inhibition on HBsAg secretion: relative to inactive compound 8. Type of data set: cell-based, Hepatitis B virus. Here is the method:
as §1

Data set [4] relates to HBV DNA replication. The experiment in a line: Inhibition of HBV DNA replication, real-time PCR, HepG 2.2.15 cells. Format: cell-based, Hepatitis B virus. To be noted: for IC50: HepG 2.2.15 cells, means of two independent experiments; for growth of inhibition on HBV DNA replication: relative to inactive compound 8. As to the method: as §1
A general note: Real-time PCR tracks product formation cycle by cycle.

Regarding `CC(=O)OC1CCC2(C)C(CCC3(C)C2CC(O)C2C(C4(C)CCCC(C)(C)O4)CCC23C)C1(C)C` (stereo not drawn) [Compound 1, 3-O-Acetly-panaxadiol], in data set [1], the cytotoxic concentration (CC50) (in general, the concentration giving 50% cytotoxicity) was > 2060 µM.
For the compound `CC1(C)CCCC(C)(C2CCC3(C)C2C(O)CC2C4(C)CCC(OC(=O)C5CCCC5)C(C)(C)C4CCC23C)O1` (stereo not drawn) [Compound 2, 3-O-Cyclopentanecarbonyl panaxadiol], the half-inhibitory concentration (IC50) (usually the midpoint of a concentration-inhibition curve) in data set [2] was > 2140 µM; in data set [3], 1250 µM; in data set [4], 515 µM. Also, the CC50 in data set [1] was > 2140 µM.
Consider `CC1(C)CCCC(C)(C2CCC3(C)C2C(O)CC2C4(C)CCC(OC(=O)c5ccco5)C(C)(C)C4CCC23C)O1` (stereo not drawn) [Compound 3, 3-O-(2′-Furoyl) panaxadiol], for which the IC50 was determined as 1180 µM in data set [2], 834 µM in data set [3] and 50.3 µM in data set [4]. Further, in data set [1], the midpoint of cytotoxicity, the CC50, lay at 1180 µM.
With `CC1(C)CCCC(C)(C2CCC3(C)C2C(O)CC2C4(C)CCC(OC(=O)c5cccs5)C(C)(C)C4CCC23C)O1` (stereo not drawn) [Compound 4, 3-O-(2′-Thenoyl) panaxadiol], the IC50 came to 18.2 µM in data set [2], 30.8 µM in data set [3] and 16.5 µM in data set [4]. Also, in data set [1], the half-maximal cytotoxic concentration (CC50) is > 1910 µM.
The like results for `Cc1ccsc1C(=O)OC1CCC2(C)C(CCC3(C)C2CC(O)C2C(C4(C)CCCC(C)(C)O4)CCC23C)C1(C)C` (stereo not drawn) [Compound 5, 3-O-(3′-Methyl)-thenoyl panaxadiol] were, in that order, > 2020 µM, > 2020 µM, > 505 µM and > 2020 µM.
For `CC1(C)CCC[C@](C)([C@H]2CC[C@]3(C)[C@@H]2[C@H](O)C[C@@H]2[C@@]4(C)CC[C@H](OC(=O)c5sccc5Cl)C(C)(C)[C@@H]4CC[C@]23C)O1` [Compound 6, 3-O-(3′-Chloro)-thenoyl panaxadiol], the IC50 in data set [2] turned out to be 280 µM; in data set [4], 43.2 µM. In data set [1], the CC50 is > 1640 µM.
As to `CC1(C)CCCC(C)(C2CCC3(C)C2C(O)CC2C4(C)CCC(OC(=O)c5cc6ccccc6s5)C(C)(C)C4CCC23C)O1` (stereo not drawn) [Compound 7, 3-O-Benzothiophene-2-carboxyl panaxadiol], in data set [1], the 50% cytotoxic concentration (CC50) is > 1690 µM.
`CC1(C)CCC[C@](C)([C@H]2CC[C@]3(C)[C@@H]2[C@H](O)C[C@@H]2[C@@]4(C)CC[C@H](OC(=O)c5ccccc5)C(C)(C)[C@@H]4CC[C@]23C)O1` [Compound 8, 3-O-Benzoyl panaxadiol]: the 50% inhibitory concentration (IC50) in data set [2] is > 2000 µM; in data set [3] it was > 2000 µM; in data set [4], 501 µM. Moreover, the CC50 in data set [1] is > 2000 µM.
For `CC1(C)CCCC(C)(C2CCC3(C)C2C(O)CC2C4(C)CCC(OC(=O)c5ccccc5O)C(C)(C)C4CCC23C)O1` (stereo not drawn) [Compound 9, 3-O-Salicyloyl panaxadiol], in data set [3], the IC50 is 43.3 µM and the “growth of inhibition on HBsAg secretion” value came out at 60 folds. In addition, in data set [4], half-maximal inhibition (IC50) was put at 9.02 µM and the “growth of inhibition on HBV DNA replication” value is 60 folds. Further, in data set [1], the cytotoxic concentration (CC50) was 44.4 µM.
As for `CC1(C)CCC[C@](C)([C@H]2CC[C@]3(C)[C@@H]2[C@H](O)C[C@@H]2[C@@]4(C)CC[C@H](OC(=O)c5cc(O)c(O)c(O)c5)C(C)(C)[C@@H]4CC[C@]23C)O1` [Compound 10, 3-O-Galloyl panaxadiol], in data set [2], the concentration for half-maximal inhibition (IC50) is > 1440 µM. In data set [3], the IC50 is 45.6 µM and the “growth of inhibition on HBsAg secretion” value is 60 folds. Moreover, in data set [4], the concentration for half-maximal inhibition (IC50) is 7.27 µM and the “growth of inhibition on HBV DNA replication” value stood at 60 folds. In data set [1], the midpoint of cytotoxicity, the CC50, lay at 25.9 µM.
Consider `CC1(C)CCCC(C)(C2CCC3(C)C2C(O)CC2C4(C)CCC(OC(=O)c5cccnc5)C(C)(C)C4CCC23C)O1` (stereo not drawn) [Compound 11, 3-O-Nicotinoyl panaxadiol], for which the values for the IC50 in data set [2], in data set [3] and in data set [4] were 1150 µM, 1150 µM and 117 µM, respectively. Half-maximal cytotoxicity in data set [1] (CC50) was put at 1150 µM.
For the compound `CCCCC(=O)O[C@H]1CC[C@]2(C)[C@H]3C[C@@H](O)[C@@H]4[C@@H]([C@@]5(C)CCCC(C)(C)O5)CC[C@@]4(C)[C@]3(C)CC[C@H]2C1(C)C` [Compound 12, 3-O-Valeryl panaxadiol], in data set [4], the IC50 is > 1580 µM. In addition, in data set [1], the CC50 is > 1580 µM.
For the compound `CCOCC(=O)O[C@H]1CC[C@]2(C)[C@H]3C[C@@H](O)[C@@H]4[C@@H]([C@@]5(C)CCCC(C)(C)O5)CC[C@@]4(C)[C@]3(C)CC[C@H]2C1(C)C` [Compound 13, 3-O-2′-Ethyoxyl-acetyl panaxadiol], the figures for the IC50 in data set [2], in data set [3] and in data set [4] were > 2360 µM, 589 µM and > 591 µM, respectively. The midpoint of cytotoxicity in data set [1], the CC50, lay at 1490 µM.
The like results for `CC1(C)CCCC(C)(C2CCC3(C)C2C(O)CC2C4(C)CCC(OC(=O)CCC(=O)O)C(C)(C)C4CCC23C)O1` (stereo not drawn) [Compound 14, 3-O-Succinyl panaxadiol] were, in that order, 169 µM, 199 µM, 16.7 µM and 179 µM.
The corresponding values for `CC1(C)CCCC(C)(C2CCC3(C)C2C(O)CC2C4(C)CCC(OC(=O)CCCC(=O)O)C(C)(C)C4CCC23C)O1` (stereo not drawn) [Compound 15, 3-O-Glutaryl panaxadiol] are 101 µM, 53.8 µM, 28.2 µM and 86.6 µM.
Take `CC1(C)CCCC(C)(C2CCC3(C)C2C(O)CC2C4(C)CCC(OC(=O)COCC(=O)O)C(C)(C)C4CCC23C)O1` (stereo not drawn) [Compound 16, 3-O-Diglycolyl panaxadiol]: the IC50 in data set [2] is 901 µM; in data set [3] it was > 1700 µM; in data set [4] it was 51.9 µM. Also, the CC50 in data set [1] was > 1700 µM.
For the compound `CC(CC(=O)O)CC(=O)O[C@H]1CC[C@]2(C)[C@H]3C[C@@H](O)[C@@H]4[C@@H]([C@@]5(C)CCCC(C)(C)O5)CC[C@@]4(C)[C@]3(C)CC[C@H]2C1(C)C` (stereo partly drawn) [Compound 17, 3-O-(3′-Methyl) diglutaryl panaxadiol], the IC50 in data set [4] came to 86.3 µM. The 50% cytotoxic concentration (CC50) in data set [1] is 934 µM.
Turning to `CC(C)(CC(=O)O)CC(=O)O[C@H]1CC[C@]2(C)[C@H]3C[C@@H](O)[C@@H]4[C@@H]([C@@]5(C)CCCC(C)(C)O5)CC[C@@]4(C)[C@]3(C)CC[C@H]2C1(C)C` [Compound 18, 3-O-(3′,3′-Dimethyl) glutaryl panaxadiol], the figures for the 50% inhibitory concentration (IC50) in data set [3] and in data set [4] were 933 µM and 124 µM, respectively. In data set [1], the 50% cytotoxic concentration (CC50) was found to be 314 µM.
As for `CC1(C)CCCC(C)(C2CCC3(C)C2C(O)CC2C4(C)CCC(OC(=O)CC5(CC(=O)O)CCCC5)C(C)(C)C4CCC23C)O1` (stereo not drawn) [Compound 19, 3-O-(3′,3′-tetramethylene)diglutaryl panaxadiol], the figures for the 50% inhibitory concentration (IC50) in data set [2], in data set [3] and in data set [4] were > 1730 µM, > 1730 µM and > 432 µM, respectively. In addition, in data set [1], the 50% cytotoxic concentration (CC50) is > 1730 µM.
For `CC(=O)OC1CC2(C)C(CC(O)C3C(C4(C)CCCC(C)(C)O4)CCC32C)C2(C)CCC(OC(C)=O)C(C)(C)C12` (stereo not drawn) [Compound 20, 3,6-O-Diacetyl-panaxatriol], the values for the half-inhibitory concentration (IC50) in data set [2], in data set [3] and in data set [4] were > 2100 µM, > 2100 µM and 545 µM, respectively. Besides, in data set [1], the CC50 is > 2100 µM.
For `CC1(C)CCCC(C)(C2CCC3(C)C2C(O)CC2C4(C)CCC(OC(=O)CCC(=O)O)C(C)(C)C4C(OC(=O)CCC(=O)O)CC23C)O1` (stereo not drawn) [Compound 21, 3,6-O-Disuccinyl panaxatriol], the IC50 in data set [2] was > 1940 µM; in data set [3], > 1940 µM; in data set [4], > 485 µM. For the same compound, in data set [1], the CC50 was > 1940 µM.
For the compound `CC1(C)CCCC(C)(C2CCC3(C)C2C(O)CC2C4(C)CCC(OC(=O)c5ccco5)C(C)(C)C4C(OC(=O)c4ccco4)CC23C)O1` (stereo not drawn) [Compound 22, 3,6-O-Di(2′-furoyl)-panaxatriol], the results for the IC50 in data set [2], in data set [3] and in data set [4] were > 1280 µM, > 1280 µM and > 320 µM, respectively. This compound also showed a CC50 in data set [1] of 530 µM.
With `CC1(C)CCCC(C)(C2CCC3(C)C2C(O)CC2C4(C)CCC(OC(=O)c5cccs5)C(C)(C)C4C(OC(=O)c4cccs4)CC23C)O1` (stereo not drawn) [Compound 23, 3,6-O-Di(2′-thenoyl)-panaxatriol], the IC50 in data set [4] was > 2090 µM. Also, the half-maximal cytotoxic concentration (CC50) in data set [1] is > 2090 µM.
For `CC1(C)CCCC(C)(C2CCC3(C)C2C(O)CC2C4(C)CCC(OC(=O)c5cccnc5)C(C)(C)C4C(OC(=O)c4cccnc4)CC23C)O1` (stereo not drawn) [Compound 24, 3,6-O-Dinicotinoyl-panaxatriol], the half-maximal inhibitory concentration (IC50) in data set [2] is 1070 µM; in data set [3], 1650 µM; in data set [4], 412 µM. In data set [1], this compound showed a CC50 of 1650 µM.
In the case of `COCC(=O)OC1CC2(C)C(CC(O)C3C(C4(C)CCCC(C)(C)O4)CCC32C)C2(C)CCC(OC(=O)COC)C(C)(C)C12` (stereo not drawn) [Compound 25, 3,6-O-Di(2′-methoxyl)acetoxyl-panaxatriol], the IC50 in data set [2] was 974 µM; in data set [3], > 1500 µM; in data set [4], > 375 µM. Moreover, the CC50 in data set [1] is > 1500 µM.
In the case of `CC(=O)OC1CCC2(C)C(CCC3(C)C2CC(=O)C2C(C4(C)CCCC(C)(C)O4)CCC23C)C1(C)C` [Compound 26, (20R)-20,25-Epoxy-3-O-acetoyl-dammaran-12-dione], in data set [1], the CC50 is > 2280 µM.
As to `CC1(C)CCCC(C)(C2CCC3(C)C2C(=O)CC2C4(C)CCC(OC(=O)c5cccs5)C(C)(C)C4CCC23C)O1` [Compound 27, (20R)-20,25-Epoxy-3-O-(2′-thenoyl)-dammaran-12-dione], the CC50 in data set [1] was > 2160 µM.
As for `CC1(C)CCCC(C)(C2CCC3(C)C2C(=O)CC2C4(C)CCC(OC(=O)CCC(=O)O)C(C)(C)C4CCC23C)O1` [Compound 28, (20R)-20,25-Epoxy-3-O-succinyl-dammaran-12-dione], the 50% inhibitory concentration (IC50) in data set [2] was > 1940 µM; in data set [3], > 1940 µM; in data set [4] it was > 485 µM. In addition, the 50% cytotoxic concentration (CC50) in data set [1] was > 1940 µM.
In data set [4], `O=C(O)c1cccs1` [TA, thiophenezoic acid, reference compound] returned a concentration for half-maximal inhibition (IC50) of 1770 µM.
